Laboratory results: patent US8410151B2, “Aminomethyl benzene derivatives” (Actelion Pharmaceuticals Ltd, priority 2009, dated 2013)

Experiments:
[1] = system: circulating lymphocytes; test: Assessment of in vivo efficacy: circulating lymphocytes after oral administration; design: species or system normotensive male Wistar rats; conditions: 3 h after oral administration of 10 mg/kg, male Wistar rats, compared to vehicle-treated group
Experimental: The efficacy of the compounds of formula (I) is assessed by measuring the circulating lymphocytes after oral administration of 3 to 30 mg/kg of a compound of formula (I) to normotensive male Wistar rats. The animals are housed in climate-controlled conditions with a 12 h-light/dark cycle, and have free access to normal rat chow and drinking water.
Blood is collected before and 3, 6 and 24 h after drug administration. Full blood is subjected to hematology using Advia Hematology system (Bayer Diagnostics, Zurich, Switzerland).
All data are presented as mean±SEM. Statistical analyses are performed by analysis of variance (ANOVA) using Statistica (StatSoft) and the Student-Newman-Keuls procedure for multiple comparisons. The null hypothesis is rejected when p<0.05.

[2] = biological target: recombinant human S1P1 receptor (Homo sapiens, UniProt P21453); test: GTPγS assay to determine EC50 values; assay type: biochemical; conditions: 35S-GTPγS binding, membrane preparations of CHO cells expressing recombinant human S1P1 receptor
Sequence of recombinant human S1P1 receptor (P21453 whole entry): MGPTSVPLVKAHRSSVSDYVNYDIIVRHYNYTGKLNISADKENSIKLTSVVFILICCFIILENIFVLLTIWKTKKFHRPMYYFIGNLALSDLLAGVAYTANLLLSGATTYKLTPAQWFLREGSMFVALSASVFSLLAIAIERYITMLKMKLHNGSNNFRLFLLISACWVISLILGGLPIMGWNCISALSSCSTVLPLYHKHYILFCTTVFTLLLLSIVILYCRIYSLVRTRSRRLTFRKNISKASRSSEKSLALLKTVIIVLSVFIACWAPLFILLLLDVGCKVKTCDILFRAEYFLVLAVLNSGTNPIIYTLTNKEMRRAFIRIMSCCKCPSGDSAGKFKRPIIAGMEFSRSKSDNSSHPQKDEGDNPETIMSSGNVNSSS
Experimental: GTPγS binding assays are performed in 96 well microtiter plates (Nunc, 442587) in a final volume of 200 μl, using membrane preparations of CHO cells expressing recombinant human S1P1 receptor. Assay conditions are 20 mM Hepes (Fluka, 54461), 100 mM NaCl (Fluka, 71378), 5 mM MgCl2 (Fluka, 63064), 0.1% BSA (Calbiochem, 126609), 1 μM GDP (Sigma, G-7127), 2.5% DMSO (Fluka, 41644), 50 pM ^355-GTPγS (Amersham Biosciences, SJ1320). The pH is 7.4. Test compounds are dissolved and diluted in 100% DMSO and pre-incubated at room temperature for 30 min in 150 μl of the above assay buffer, in the absence of ^355-GTPγS. After addition of 50 μl of ^355-GTPγS, the assay is incubated for 1 h at rt. The assay is terminated by transfer of the reaction mixture to a Multiscreen plate (Millipore, MAHFC1H60) using a cell harvester from Packard Biosciences, and the plates are washed with ice-cold 10 mM Na2HPO4/NaH2PO4 (70%/30%), dried, sealed at the bottom and, after addition of 25 μl MicroScint20 (Packard Biosciences, order #6013621), sealed on the top. Membrane-bound ^35S-GTPγS is measured with a TopCount from Packard Biosciences.
EC50 is the concentration of agonist inducing 50% of the maximal specific ^35S-GTPγS binding. Specific binding is determined by subtracting non-specific binding from maximal binding. Maximal binding is the amount of cpm bound to the Multiscreen plate in the presence of 10 μM of S1P. Non-specific binding is the amount of binding in the absence of an agonist in the assay.

CCc1cc(-c2noc(-c3cc(C)cc(CN4CCCC4)c3)n2)cc(C)c1OC[C@@H](O)CNC(=O)CO [Example 22, N—((S)-3-{2-ethyl-6-methyl-4-[5-(3-methyl-5-pyrrolidin-1-ylmethyl-phenyl)-[1,2,4]oxadiazol-3-yl]-phenoxy}-2-hydroxy-propyl)-2-hydroxy-acetamide] showed a Lymphocyte counts [1] of −61.0% and an EC50 [2] of 7 nM.
CCCCN(C)Cc1cc(C)cc(-c2nc(-c3cc(C)c(OC[C@@H](O)CNC(=O)CO)c(CC)c3)no2)c1 [Example 18, N—{(S)-3-[4-(5-{3-[(butyl-methyl-amino)-methyl]-5-methyl-phenyl}-[1,2,4]oxadiazol-3-yl)-2-ethyl-6-methyl-phenoxy]-2-hydroxy-propyl}-2-hydroxy-acetamide] was tested, and the Lymphocyte counts [1] was −63.0% and the EC50 [2] was 3.3 nM.
Compound CCc1cc(CN(C)CC(C)C)cc(-c2nc(-c3cc(C)c(OC[C@@H](O)CNC(=O)CO)c(CC)c3)no2)c1 [Example 53, N—{(S)-3-[2-ethyl-4-(5-{3-ethyl-5-[(isobutyl-methyl-amino)-methyl]-phenyl}-[1,2,4]oxadiazol-3-yl)-6-methyl-phenoxy]-2-hydroxy-propyl}-2-hydroxy-acetamide] has a Lymphocyte counts [1] of −61.0%.
CCc1cc(-c2noc(-c3cc(C)cc(CN(C)CC)c3)n2)cc(C)c1OC[C@@H](O)CNC(=O)CO [Example 16, N—{(S)-3-[2-ethyl-4-(5-{3-[(ethyl-methyl-amino)-methyl]-5-methyl-phenyl}-[1,2,4]oxadiazol-3-yl)-6-methyl-phenoxy]-2-hydroxy-propyl}-2-hydroxy-acetamide] gave a Lymphocyte counts [1] of −62.1% and an EC50 [2] of 2.7 nM.
